Results published in article PMC12186256, “Inhibitors of the PqsR Quorum-Sensing Receptor Reveal Differential Roles for PqsE and RhlI in Control of Phenazine Production” (ACS Chemical Biology, 2025).

Tests used:
WT P. aeruginosa [1] = assay: Quinolone (HHQ, PQS) quantitation by LCMS in culture fluids; format: cell-based, Pseudomonas aeruginosa; conditions: WT P. aeruginosa treated with 100 μM compound; compared with ΔpqsR
Experimental: For all assays: the designated P. aeruginosa strains were grown as described above for the pyocyanin inhibition assay. Following overnight growth, culture fluids were separated from cells by centrifugation and filtration.
For quinolone quantitation: cell-free culture fluids were extracted with 2 mL of ethyl acetate that had been acidified with 0.15 mL/L glacial acetic acid. The organic layer was isolated and dried down in vacuo. Dried samples were resuspended in 50 μL of methanol and analyzed by LCMS on an Agilent 1290 Infinity II HPLC connected to an MSD iQ. The injection was 2 μL. The mobile phase was a water–MeCN gradient containing 0.1% formic acid. Chromatography was performed as follows: 2 min hold at 5% […], ramp up to 95% MeCN over 8 min hold for 2 min at 95% MeCN, return to 5% MeCN and re-equilibrate for 1 min. Data were acquired in positive mode scanning between m/z 100–1000. Source parameters for acquisition were as follows: gas temperature 325 °C, gas flow 11 (L/min), capillary voltage 3500 V. Data were processed using Agilent OpenLAB CDS. Peaks were extracted by m/z, quantified by area under the curve. Each compound was compared to a 100 ng/μL commercial standard of PQS or HHQ.

PqsR = target: T1, PqsR (Pseudomonas aeruginosa, UniProt Q9I4X0); assay: E. coli PqsR/ppqsA-lux reporter assay; format: cell-based
T1 construct: expressed in transfected cells; host or cells: Escherichia coli carrying pBAD-pqsR and pCS26-ppqsA-luxCDABE
T1 sequence (Q9I4X0 whole entry): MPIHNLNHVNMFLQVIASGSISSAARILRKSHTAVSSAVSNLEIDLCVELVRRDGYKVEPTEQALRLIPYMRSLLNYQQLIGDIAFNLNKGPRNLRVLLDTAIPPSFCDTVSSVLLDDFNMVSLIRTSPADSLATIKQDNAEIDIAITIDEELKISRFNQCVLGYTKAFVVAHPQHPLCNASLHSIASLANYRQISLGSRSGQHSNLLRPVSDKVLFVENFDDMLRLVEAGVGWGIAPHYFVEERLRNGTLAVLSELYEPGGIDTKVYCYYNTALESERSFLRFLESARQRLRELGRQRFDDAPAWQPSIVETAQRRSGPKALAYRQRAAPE
Source text: To determine the target(s) of the 49 hit compounds in P. aeruginosa, we assayed them in a set of E. coli-based reporter strains that read out exclusively RhlR, LasR, or PqsR function. The three assays work by a similar logic. In each case, the gene encoding one of the three quorum-sensing receptors is driven by an arabinose-inducible promoter. The receptor proteins, once made, are activated by exogenously supplied cognate autoinducer. The receptor–autoinducer complexes activate a target gene promoter fused to luciferase (prhlA-lux for RhlR, plasB-lux for LasR, and ppqsA-lux for PqsR). […] To further verify that PqsR is the target of our inhibitors, we assessed whether production of PQS and its precursor, HHQ, declined following treatment of WT P. aeruginosa with one test compound, A7. […] Below, we focus on these 30 compounds that we propose target PqsR. The other 19 compounds will be characterized at a later time.
As previously reported, following overnight growth in LB liquid medium at 37 °C, E. coli reporter strains were diluted 1:1000 in LB liquid medium containing 1% arabinose (PqsR) or 0.1% arabinose (LasR and RhlR). The reporter strain for PqsR activity carried pCS26-ppqsA-luxCDABE and pBAD-pqsR. The reporter strain for LasR activity carried pCS26-plasB-luxCDABE and pBAD-lasR; the reporter strain for RhlR activity carried pCS26-prhlA-luxCDABE and pBAD-rhlR. Test compounds were added at the specified concentrations. To activate PqsR, PQS was added at 100 nM. To activate LasR, 3O-C12-HSL was added at 5 nM. To activate RhlR, C4-HSL was added at 10 μM. To establish IC50 values, 10-point, […] serial dilution series were made starting at 100 μM of each compound. The mixtures were incubated at 37 °C for 24 h (BioSpa, Agilent). Bioluminescence and OD600 were assessed every 15 min (Neo2, Agilent). Readings from the 9 h time point, representing peak signal production, were used to calculate the IC50 values.

[2] = test system: pphz1-lux in WT P. aeruginosa; assay: P. aeruginosa pphz1-lux bioluminescent reporter assay; format: cell-based, Pseudomonas aeruginosa PA14; conditions: for IC50: Pseudomonas aeruginosa, PA14, read-out: IC50 PA14; for IC50 values in P. aeruginosa: pphz1-lux in WT P. aeruginosa
Experimental: Strains were struck onto LB agar and grown overnight at 37 °C. The following day, individual colonies were isolated and transferred into LB liquid medium followed by incubation at 37 °C. After overnight growth, cultures were diluted 1:1000 into M9 medium. 100 μL of these suspensions were aliquoted into wells of 96 well plates (Corning). Plates were incubated for 24 h at 37 °C in a BioSpa Automated Incubator (Agilent). Light production and OD600 were quantified from each well at either 15 or 20 min intervals (Neo2, Agilent). When noted, SPR741 (DC Chemicals) was added at the specified concentration.
One thousand small molecules from the initial screen were selected for retesting, following the identical protocol used for the screen. Of these molecules, 751 were assayed for luciferase inhibition using P. aeruginosa containing ptac-lux instead of pphz1-lux. Any compound that inhibited this reporter by at least 50% was eliminated from the pipeline. One hundred and sixty-seven compounds were further analyzed in dilution series to determine IC50 values with respect to pphz1-lux inhibition. A ten-point, 2-fold serial dilution series was made of each test compound in DMSO solvent. The highest tested concentration was 40 μM. These assays were carried out in 384 well plates (Corning) as described above using both the P. aeruginosa ptac-lux and pphz1-lux reporter strains.

WT P. aeruginosa [3] = assay: Real time PCR of phzH and phzS; format: cell-based, Pseudomonas aeruginosa; conditions: 100 μM compound, qPCR relative to DMSO
Experimental: Following overnight growth in LB at 37 °C with aeration, P. aeruginosa strains were diluted to an OD600 of 0.001 and grown to an OD600 of 3 at 37 °C with aeration. 500 μL of cells were collected by centrifugation and flash frozen. RNA was extracted using RNAeasy Plus mini columns (Qiagen). DNA was removed, followed by cDNA synthesis, using SuperScript IV VILO Master Mix with ezDNase Enzyme (Invitrogen). RNA was quantified using PerfeCTa SYBR Green FastMix Low ROX (Quanta BioSciences). Relative quantity is calculated by ΔΔCt compared to DMSO treatment and the reference gene, rpsL. Outliers with values higher or lower than twice the standard deviation of the mean were removed.

WT P. aeruginosa [4] = assay: Pyocyanin inhibition assay; format: cell-based, Pseudomonas aeruginosa; conditions: 100 μM compound
Experimental: WT P. aeruginosa and the ΔpqsE mutant were struck onto LB agar and grown overnight at 37 °C. Individual colonies were diluted into 5 mL of LB liquid medium. Aliquots were transferred into glass tubes containing test compounds with and without 8 μg/mL SPR741. WT P. aeruginosa to which DMSO had been added served as the negative control. The P. aeruginosa ΔpqsE strain to which DMSO had been added served as the positive control. Compounds were tested at 100 μM. Tubes were shaken for 18 h at 37 °C followed by centrifugation at 15,000 rpm for 5 min. Cell-free culture fluids were collected and assessed for pyocyanin by absorbance at 695 nm. Values were normalized by culture density, using absorbance at OD600. Percent inhibition of OD695/OD600 was normalized to the DMSO control.

SMILES | IC50 (PqsR) [µM] | IC50 [2] [µM] | also measured
N#Cc1cc(CN2CCC3(CC2)CC(Nc2ncccn2)C3)ccc1F [Compound A7] | 0.51 ± 0.16 | 2.2 ± 0.23 | production of HHQ (WT P. aeruginosa [1]): reduced to the level made by the P. aeruginosa ΔpqsR strain; production of PQS (WT P. aeruginosa [1]): reduced to the level made by the P. aeruginosa ΔpqsR strain
N#Cc1ccc(NCC2CCC3(COCCN(Cc4ccccc4OC(F)F)C3)O2)nc1 (stereo not shown) [Compound A8] | 1.9 ± 0.44 | 0.8 ± 0.2 | phzH expression (WT P. aeruginosa [3]): reduction only to the level displayed by the ΔpqsE mutant; phzS expression (WT P. aeruginosa [3]): reduced to the level in the ΔpqsE strain; IC50 values in P. aeruginosa [2]: submicromolar
N#Cc1cccc(CNCC2Cn3nnc(-c4ccccc4)c3CO2)c1 (stereo not shown) [Compound A9] | 3.9 ± 0.65 | 38 ± 2.4 | –
CC(C)Oc1ccc(N2CC(C(=O)Nc3cccc(Cl)c3Cl)CC2=O)cc1 (stereo not shown) [Compound B2] | 4.7 ± 0.56 | 4.9 ± 0.26 | –
Cc1nn(-c2ccccc2)c(-n2cccc2)c1C(=O)N1CCC(C(=O)NCCc2ccccc2)CC1 [Compound B3] | 5.2 ± 1.7 | 2 ± 0.28 | –
O=C(Nc1nnc(C(F)(F)F)s1)C1CC(=O)N(CCc2c[nH]c3ccc(Cl)cc23)C1 (stereo not shown) [Compound B4] | 0.59 ± 0.07 | 2.8 ± 0.1 | –
O=S(=O)(c1ccc(-c2cc(C(F)(F)F)n[nH]2)s1)N1CC=C(c2ccccc2)CC1 [Compound B6] | 0.55 ± 0.12 | 0.4 ± 0.03 | IC50 values in P. aeruginosa [2]: submicromolar
O=S(=O)(Nc1ccc(F)cc1Cl)c1ccc(-c2cc(C(F)(F)F)n[nH]2)s1 [Compound B7] | 3.8 ± 0.3 | 3.5 ± 0.36 | –
CCOc1ccc(-n2nnnc2CNC(=O)Nc2cccc(Cl)c2)cc1 [Compound B8] | 2.37 ± 0.77 | 6.4 ± 1 | –
Cc1ccc(C(=O)NCc2nc(-c3ccc(Oc4ccccc4)cc3)no2)cc1 [Compound B9] | 2 ± 0.24 | – | –
O=C(NC(C(=O)N1CCOCC1)C12CC3CC(CC(C3)C1)C2)c1ccc([N+](=O)[O-])cc1 (stereo not shown) [Compound B10] | – | 10.5 ± 1.4 | –
O=C(Cn1cnc2c(oc3ccccc32)c1=O)N1CCC(Cc2ccccc2)CC1 [Compound B12] | 14.5 ± 1.9 | 10.5 ± 1.2 | –
O=C(NCc1cccs1)C1CCN(c2ccc3nnc(-c4ccccc4F)n3n2)CC1 [Compound B13] | 11.9 ± 0.98 | – | –
CC(=O)c1cc(-c2ccccc2)n(CC(=O)Nc2nc3ccc(C)cc3s2)c1C [Compound B14] | 14.5 ± 3.39 | 11.4 ± 0.9 | –
O=C(CN1CCC(c2nc(-c3cccc(F)c3)no2)CC1)Nc1ccccc1 [Compound B15] | 7.04 ± 1.18 | 8.6 ± 0.19 | –
COc1cccc(-c2nc(CC(=O)Nc3ccc(F)cc3)no2)c1 [Compound C2] | 0.83 ± 0.17 | 3.2 ± 0.08 | –
O=C(Cn1nnc(-c2ccccc2)n1)Nc1ccc(Br)cc1 [Compound C6] | 0.37 ± 0.08 | – | –
N#Cc1cnc(SCC(=O)Nc2ccc(Cl)c(Br)c2)nc1N [Compound C7] | 0.67 ± 0.08 | 2.4 ± 0.4 | –
O=C(NC1CCN(Cc2cc(F)cc(F)c2)CC1)c1cc(C(F)(F)F)n[nH]1 [Compound C8] | 0.27 ± 0.04 | 3.9 ± 0.38 | –
Oc1cc(CN2CCC(CCn3cccn3)CC2)nc2ccc(F)cc12 [Compound C9] | 0.21 ± 0.08 | 7.6 ± 0.25 | –
CCOC1CCN(C(=O)c2cccc(-c3ccc(OC(F)F)cc3)c2)CC1 [Compound C10] | – | 4.4 ± 0.16 | –
Cc1noc(CN2CCCC(CCC(=O)Nc3ccc(C(F)(F)F)cc3)C2)n1 (stereo not shown) [Compound C11] | 2.94 ± 0.83 | 2.8 ± 0.19 | –
Cc1cc(Br)ccc1NC(=O)CNC(=O)c1ccc(-n2cnc3ccccc32)cc1 [Compound D1] | 1.99 ± 0.88 | 3.9 ± 0.32 | pyocyanin inhibition without versus with SPR741 (WT P. aeruginosa [4]): improved pyocyanin inhibition in the absence of SPR741 compared to in its presence
N#CCc1ccc(NC(=O)CNc2ccc(C(F)(F)F)cc2)cc1 [Compound D2] | 1.32 ± 0.17 | 2.3 ± 0.02 | –
COc1ccc(Cl)cc1C(=O)NCC(O)C1CCCCC1 (stereo not shown) [Compound D3] | 8.39 ± 0.075 | 8.2 ± 0.77 | –
Cc1cc(Br)ccc1OCCn1cnc2ccccc2c1=O [Compound D4] | 1.23 ± 0.31 | 1.1 ± 0.028 | –
O=C(NCc1ccc(OC(F)F)cc1)c1ccc(C2SCCS2)cc1 [Compound D6] | 0.42 ± 0.045 | 0.53 ± 0.028 | IC50 values in P. aeruginosa [2]: submicromolar
O=C(c1csc2nc(-c3ccc(F)cc3)cn12)N1CCN(c2ccccc2F)CC1 [Compound E3] | – | 5 ± 0.26 | –
O=C(Nc1ccc(Cl)c(Cl)c1)c1ccc(=O)n(Cc2cccc(F)c2)n1 [Compound E5] | 2.87 ± 0.84 | 2.3 ± 0.12 | –
CC(C)C(C(=O)O)N1C(=O)C(=Cc2cccc(Br)c2)SC1=S (stereo not shown) [Compound E6] | – | 9.7 ± 0.49 | –
